Reference: patent US9334244B2, “Compounds useful as inhibitors of ATR kinase” (Vertex Pharmaceuticals Incorporated, priority 2010, dated 2016)

Target: T1, full-length ATR (Homo sapiens, UniProt Q13535)
T1 construct: Assays were carried out at 25° C. in the presence of 5 nM full-length ATR
Test: ATR Inhibition Assay (radioactive-phosphate incorporation)
Format: biochemical
Settings: 5 nM full-length ATR, 10 μM [γ-33P]ATP, 800 μM target peptide, 25° C.; read-out: Ki value (Ki(app)) for inhibition of ATR
Experimental: Compounds were screened for their ability to inhibit ATR kinase using a radioactive-phosphate incorporation assay. Assays were carried out in a mixture of 50 mM Tris/HCl (pH 7.5), 10 mM MgCl2 and 1 mM DTT. Final substrate concentrations were 10 μM [γ-^33P]ATP (3mCi 33P ATP/mmol ATP, Perkin Elmer) and 800 μM target peptide ([…]).
Assays were carried out at 25° C. in the presence of 5 nM full-length ATR. An assay stock buffer solution was prepared containing all of the reagents listed above, with the exception of ATP and the test compound of interest. 13.5 μL of the stock solution was placed in a 96 well plate followed by addition of 2 μL of DMSO stock containing serial dilutions of the test compound (typically starting from a final concentration of 15 μM with 3-fold serial dilutions) in duplicate (final DMSO concentration 7%). The plate was pre-incubated for 10 minutes at 25° C. and the reaction initiated by addition of 15 μl [γ-^33P]ATP (final concentration 10 μM).
The reaction was stopped after […] by the addition of 30 μL 0.1M phosphoric acid containing 2 mM ATP. A multiscreen phosphocellulose filter 96-well plate (Millipore, Cat no. MAPHN0B50) was pretreated with 100 μL 0.2M phosphoric acid prior to the addition of 45 μL of the stopped assay mixture. The plate was washed with 5×200 μL 0.2M phosphoric acid. After drying, 100 μL Optiphase ‘SuperMix’ liquid scintillation cocktail (Perkin Elmer) was added to the well prior to scintillation counting (1450 Microbeta Liquid Scintillation Counter, Wallac).
After removing mean background values for all of the data points, Ki(app) data were calculated from non-linear regression analysis of the initial rate data using the Prism software package (GraphPad Prism version 3.0cx for Macintosh, GraphPad Software, San Diego Calif., USA).

T1 sequence (Q13535 whole entry): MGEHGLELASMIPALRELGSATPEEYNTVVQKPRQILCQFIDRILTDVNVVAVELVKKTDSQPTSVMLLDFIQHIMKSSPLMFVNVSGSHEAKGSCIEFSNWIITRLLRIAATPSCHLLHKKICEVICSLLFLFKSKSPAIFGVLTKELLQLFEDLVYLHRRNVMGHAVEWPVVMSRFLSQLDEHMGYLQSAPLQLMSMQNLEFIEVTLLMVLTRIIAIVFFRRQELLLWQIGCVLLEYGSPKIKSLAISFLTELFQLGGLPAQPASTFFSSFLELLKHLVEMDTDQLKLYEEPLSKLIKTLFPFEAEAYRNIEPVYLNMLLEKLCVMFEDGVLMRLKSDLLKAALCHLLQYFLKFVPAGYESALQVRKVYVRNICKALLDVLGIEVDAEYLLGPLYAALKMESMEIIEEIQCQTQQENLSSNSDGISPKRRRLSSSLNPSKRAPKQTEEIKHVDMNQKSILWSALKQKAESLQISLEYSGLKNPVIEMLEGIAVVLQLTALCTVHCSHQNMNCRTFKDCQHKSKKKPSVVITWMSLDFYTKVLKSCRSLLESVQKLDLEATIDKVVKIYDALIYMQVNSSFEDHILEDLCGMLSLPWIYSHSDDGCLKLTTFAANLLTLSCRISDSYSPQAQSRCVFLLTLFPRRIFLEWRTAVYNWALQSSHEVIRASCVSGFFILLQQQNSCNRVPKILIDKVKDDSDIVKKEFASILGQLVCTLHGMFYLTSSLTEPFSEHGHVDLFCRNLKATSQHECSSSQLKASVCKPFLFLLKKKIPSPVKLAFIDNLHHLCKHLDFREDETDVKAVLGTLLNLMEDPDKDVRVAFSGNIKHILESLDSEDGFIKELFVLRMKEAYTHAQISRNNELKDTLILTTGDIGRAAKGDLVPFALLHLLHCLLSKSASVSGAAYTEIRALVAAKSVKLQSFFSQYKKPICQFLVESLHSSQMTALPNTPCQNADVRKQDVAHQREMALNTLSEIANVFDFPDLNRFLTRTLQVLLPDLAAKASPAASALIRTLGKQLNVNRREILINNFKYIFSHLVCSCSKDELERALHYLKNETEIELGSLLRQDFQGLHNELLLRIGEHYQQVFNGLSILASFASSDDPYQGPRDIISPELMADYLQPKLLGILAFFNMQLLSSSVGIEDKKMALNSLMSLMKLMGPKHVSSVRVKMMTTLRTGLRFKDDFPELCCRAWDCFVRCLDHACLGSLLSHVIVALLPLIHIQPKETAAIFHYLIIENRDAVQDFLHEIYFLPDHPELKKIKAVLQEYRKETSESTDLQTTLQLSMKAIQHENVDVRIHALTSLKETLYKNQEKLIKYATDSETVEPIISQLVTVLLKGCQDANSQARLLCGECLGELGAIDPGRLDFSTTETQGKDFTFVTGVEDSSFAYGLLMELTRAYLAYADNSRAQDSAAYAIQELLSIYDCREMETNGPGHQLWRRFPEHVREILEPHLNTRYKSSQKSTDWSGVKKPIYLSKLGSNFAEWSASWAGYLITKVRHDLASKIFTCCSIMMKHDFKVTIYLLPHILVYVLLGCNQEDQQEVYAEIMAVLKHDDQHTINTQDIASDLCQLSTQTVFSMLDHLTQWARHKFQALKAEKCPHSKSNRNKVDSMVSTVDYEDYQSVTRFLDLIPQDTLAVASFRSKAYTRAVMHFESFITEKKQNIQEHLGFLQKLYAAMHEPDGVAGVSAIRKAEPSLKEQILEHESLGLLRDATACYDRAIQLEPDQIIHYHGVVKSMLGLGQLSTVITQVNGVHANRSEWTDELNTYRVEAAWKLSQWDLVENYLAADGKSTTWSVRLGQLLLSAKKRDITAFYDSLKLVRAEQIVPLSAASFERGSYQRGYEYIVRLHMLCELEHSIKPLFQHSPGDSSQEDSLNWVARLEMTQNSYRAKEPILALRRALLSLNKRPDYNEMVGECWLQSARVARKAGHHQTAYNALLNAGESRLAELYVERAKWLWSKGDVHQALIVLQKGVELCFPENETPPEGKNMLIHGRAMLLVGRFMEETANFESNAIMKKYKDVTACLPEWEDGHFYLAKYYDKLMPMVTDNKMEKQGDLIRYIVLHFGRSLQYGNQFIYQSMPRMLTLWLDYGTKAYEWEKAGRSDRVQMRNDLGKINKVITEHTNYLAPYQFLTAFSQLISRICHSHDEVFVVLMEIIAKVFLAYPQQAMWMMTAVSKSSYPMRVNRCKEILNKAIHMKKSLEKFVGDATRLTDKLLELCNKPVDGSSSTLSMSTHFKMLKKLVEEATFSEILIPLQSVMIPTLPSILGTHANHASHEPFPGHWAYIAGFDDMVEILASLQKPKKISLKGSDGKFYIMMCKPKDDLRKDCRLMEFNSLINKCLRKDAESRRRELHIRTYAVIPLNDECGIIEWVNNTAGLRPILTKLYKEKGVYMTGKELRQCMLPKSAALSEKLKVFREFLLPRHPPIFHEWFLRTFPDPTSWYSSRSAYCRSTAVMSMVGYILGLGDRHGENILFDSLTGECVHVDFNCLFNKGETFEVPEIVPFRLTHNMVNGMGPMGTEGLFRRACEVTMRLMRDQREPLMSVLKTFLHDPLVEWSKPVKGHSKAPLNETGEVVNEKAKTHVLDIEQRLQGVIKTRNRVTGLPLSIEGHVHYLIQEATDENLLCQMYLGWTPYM

| Ki [µM] | Compound |
| --- | --- |
| 0.25 to 0.5 | Cc1ncc(-c2ccc(S(C)(=O)=O)cc2)nc1C(=O)Nc1ccccc1 [Compound IV-1, 3-Methyl-6-(4-(methylsulfonyl)phenyl)-N-phenylpyrazine-2-carboxamide] |
| 0.1 to 0.25 | CC(C)S(=O)(=O)c1ccc(-c2cncc(-c3cc(-c4ccccc4)no3)n2)cc1 [Compound IV-2, 5-(6-(4-(isopropylsulfonyl)phenyl)pyrazin-2-yl)-3-phenylisoxazole] |
| < 0.1 | CNCc1ccc(-c2cc(-c3cncc(-c4ccc(S(=O)(=O)C(C)C)cc4)n3)on2)cc1 [Compound IV-3, 1-(4-(5-(6-(4-(isopropylsulfonyl)phenyl)pyrazin-2-yl)isoxazol-3-yl)phenyl)-N-methylmethanamine] |
